Assay results as given in patent EP0812829A1, “Substituted imidazoles as modulators of multi-drug resistance” (ONTOGEN CORPORATION, priority 1996, dated 1997).
Counter-ions that a name gives are not always drawn.

Legend:
[1] = tested on: CEM/VLB1000 Cells; assay: Enhancement of 3H-vinblastine accumulation; assay type: cell-based; settings: midpoint (EC50) of minimum and maximum increase in accumulation of 3H-vinblastine, 3H-vinblastine 550 nM, 3 hours at 37°C, read-out: [^3H]VLB Accumulation (µM) CEM/VLB1000 Cells
Description: Enhancement of ^3H-vinblastine accumulation was also measured in the cell line. Corning Easy-Wash 96 well plates were pretreated with PBS and 1% BSA for 60 minutes and then dried. CEM/VLB1000 cells were seeded at 2 x 10^5, 40 µL volume. Plates were incubated at 37°C for 30-60 minutes prior to use. The reference reversing agent, verapamil, or the compound of the present invention was added to the well followed by addition of media containing ^3H-vinblastine (final concentration = 550 nM). Plates were allowed to incubate for 3 hours at 37°C. Cells were harvested onto pretreated Wallace filtermats B (pretreated overnight with 0.1% polyethyleneimine) using a TomTek harvester-96. After filtering, the filtermats were allowed to dry completely. Meltix B scintillant was then added to the filtermats. The filters were then placed in a 90°C oven for approximately 3-5 minutes and then removed. Scintillant was allowed to solidify on the filtermats. Filtermats were then placed in sample bags and read on a Wallace BetaPlate scintillation counter. The effect of compounds of the present invention in the cytotoxicity potentiation assays and vinblastine (VLB) accumulation assay is given in the Table below: […]

[2] = tested on: CEM/VLB1000 Cells; assay: Cytotoxicity potentiation assay (alamar blue), vinblastine in CEM/VLB1000 cells; settings: read-out: Cytotoxicity Potentiation (µM) CEM/VLB1000 Cells; midpoint (EC50) of minimum and maximum cytotoxicity induced by 5 µg/mL vinblastine and compound; 48 hours incubation, alamar blue 24 hours
Description: Multidrug-resistant cell lines are easily obtainable for in vitro determination of drug sensitization by compounds of the present invention. In vitro potentiation of antineoplastic cytotoxicity by the imidazole derivatives of the present invention was measured in both CEM/VLB1000 and SK/VLB1000 cell lines. The multidrug resistant cell lines-were obtained from Dr. Victor Ling, Ontario Cancer Institute, Toronto, Canada. The CEM/VLB 1000 cell line was maintained as a suspension in minimum essential medium supplemented with 10% of fetal bovine serum in a humidied atmosphere of 95% air and 5% CO2 while the SK/VLB 1000 cell line was maintained as adherent cells using the identical medium conditions as the CEM cells. The CEM/VLB 1000 cells were seeded at a density of 5 x 10^4 cells/well in a 96 well microtiter plate while the SK/VLB 1000 cell line was seeded at a density of 2,500 cells/well after trypsinization. Vinblastine (5 µg/mL, for the CEM cells) or Taxol (3 µg/mL, for the SK cells) and compound (0.01 to 50 µM) were added directly to the wells. After an incubation of 48 hours in presence of drug, alamar blue (B. Page et al., Int. J. Oncol. 3: 473-476, 1993) was added (20 µL to the 200 µL cell suspension) for a period of 24 hours after which the fluorescence (excitation = […], emission = […]) was read for each well using a "CytoFluor" microtiter fluorometer plate reader. This assay measures the minimal concentration of compound necessary to enhance the cytotoxicity (EC50) of vinblastine in the MDR cell line.

[3] = tested on: SK/VLB1000 Cells; assay: Cytotoxicity potentiation assay (alamar blue), Taxol in SK/VLB1000 cells; assay type: cell-based; settings: midpoint (EC50) of minimum and maximum cytotoxicity; method: Taxol 3 µg/mL for the SK cells (footnote: 5 µg/mL vinblastine); 48 hours incubation, alamar blue 24 hours
Description: In vitro potentiation of antineoplastic cytotoxicity by the imidazole derivatives of the present invention was measured in both CEM/VLB1000 and SK/VLB1000 cell lines. The multidrug resistant cell lines-were obtained from Dr. Victor Ling, Ontario Cancer Institute, Toronto, Canada. The CEM/VLB 1000 cell line was maintained as a suspension in minimum essential medium supplemented with 10% of fetal bovine serum in a humidied atmosphere of 95% air and 5% CO2 while the SK/VLB 1000 cell line was maintained as adherent cells using the identical medium conditions as the CEM cells. The CEM/VLB 1000 cells were seeded at a density of 5 x 10^4 cells/well in a 96 well microtiter plate while the SK/VLB 1000 cell line was seeded at a density of 2,500 cells/well after trypsinization. Vinblastine (5 µg/mL, for the CEM cells) or Taxol (3 µg/mL, for the SK cells) and compound (0.01 to 50 µM) were added directly to the wells. After an incubation of 48 hours in presence of drug, alamar blue (B. Page et al., Int. J. Oncol. 3: 473-476, 1993) was added (20 µL to the 200 µL cell suspension) for a period of 24 hours after which the fluorescence (excitation = 530 nM, emission = 590 nM) was read for each well using a "CytoFluor" microtiter fluorometer plate reader. This assay measures the minimal concentration of compound necessary to enhance the cytotoxicity (EC50) of vinblastine in the MDR cell line.

Row | Compound | EC50 [1] [µM] | EC50 [2] [µM] | EC50 [3] [µM]
1 | Oc1ccc(-c2nc(-c3ccccc3)c(-c3ccccc3)n2-c2ccccc2)cc1 [Example 1, 2-(4-hydroxyphenyl)-1,4,5-triphenyl-imidazole trifluoroacetic acid salt] | 20 |  | 
2 | COc1ccc(-c2nc(-c3ccc(O)cc3)n(Cc3ccccc3)c2-c2ccc(OC)cc2)cc1 [Example 2, 1-benzyl-2-(4-hydroxyphenyl)-4,5-di-(4-methoxyphenyl)-imidazole trifluoroacetic acid salt] | 2 |  | 
3 | CN(C)c1ccc(-c2nc(-c3ccc(C(=O)O)cc3)[nH]c2-c2ccc(N(C)C)cc2)cc1 [Example 3, 2-(4-carboxyphenyl)-4,5-di-[4-(dimethylamino)-phenyl]-1(H)-imidazole] |  | 10 | 
4 | COC(=O)c1ccc(-c2nc(-c3ccc(N(C)C)cc3)c(-c3ccc(N(C)C)cc3)[nH]2)cc1 [Example 4, 4,5-di-[4-(dimethylamino)-phenyl]-2-[4-(methoxycarbonyl)-phenyl]-1(H)-imidazole] | 5 | 0.3 | 1
5 | CCCCCCn1c(-c2ccc(C(=O)O)cc2)nc(-c2ccc(N(C)C)cc2)c1-c1ccc(N(C)C)cc1 [Example 5, 2-(4-carboxyphenyl)-4,5-di-[4-(dimethylamino)-phenyl]-1-(n-hexyl)-imidazole] | 12 | 3 | 10
6 | CCCCCCn1c(-c2ccc(C(=O)OC)cc2)nc(-c2ccc(N(C)C)cc2)c1-c1ccc(N(C)C)cc1 [Example 6, 4,5-di-[4-(dimethylamino)-phenyl]-1-(n-hexyl)-2-[4-(methoxycarbonyl)-phenyl]-imidazole] |  | 5 | 
7 | CN(C)c1ccc(-c2nc(-c3ccc(/C=C/C(=O)O)cc3)[nH]c2-c2ccc(N(C)C)cc2)cc1 [Example 7, 2-[4-(trans-2-carboxyethenyl)-phenyl] -4,5-di-[4-(dimethylamino)-phenyl]-1(H)-imidazole] |  | 10 | 
8 | COC(=O)C=Cc1ccc(-c2nc(-c3ccc(N(C)C)cc3)c(-c3ccc(N(C)C)cc3)[nH]2)cc1 [Example 8, 4,5-di-[4-(dimethylamino)-phenyl]-2-{4-[trans-(2-methoxycarbonyl)-ethenyl]-phenyl}-1(H)-imidazole] | 5 | 0.3 | 0.3
9 | CN(C)c1ccc(-c2nc(-c3ccc(O)cc3)[nH]c2-c2ccc(N(C)C)cc2)cc1 [Example 9, 4,5-di-[4-(dimethylamino)-phenyl]-2-(4-hydroxyphenyl)-1(H)-imidazole] | 20 | 10 | 10
10 | CN(C)c1ccc(-c2nc(-c3ccc(O)cc3)n(CCc3ccccc3)c2-c2ccc(N(C)C)cc2)cc1 [Example 10, 4,5-di-[4-(dimethylamino)-phenyl]-2-(4-hydroxyphenyl)-1-(2-phenylethyl)-imidazole] | 10 | 2 | 
11 | CN(C)c1ccc(-c2nc(-c3ccc(C(=O)O)cc3)n(CCc3ccccc3)c2-c2ccc(N(C)C)cc2)cc1 [Example 11, 2-(4-carboxyphenyl)-4,5-di-[4-(dimethylamino)-phenyl]-1-(2-phenylethyl)-imidazole] |  | 10 | 
12 | CN(C)c1ccc(-c2nc(-c3ccc(/C=C/C(=O)O)cc3)n(CCc3ccccc3)c2-c2ccc(N(C)C)cc2)cc1 [Example 12, 2-[4-(trans-2-carboxyethenyl)-phenyl]-4,5-di-[4-(dimethylamino)-phenyl]-1-(2-phenylethyl)-imidazole] |  | 10 | 
13 | COC(=O)/C=C/c1ccc(-c2nc(-c3ccc(OC)cc3)c(-c3ccc(OC)cc3)n2CCCCCC(=O)OC)cc1 [Example 13, 4,5-di-(4-methoxyphenyl)-2-{4-[trans-(2-methoxycarbonyl)-ethenyl]-phenyl}-1-[5-(methoxycarbonyl)-n-pentyl)-imidazole] |  | 0.6 | 
14 | COc1ccc(-c2nc(-c3ccc(/C=C/c4ccccc4)cc3)n(CCCn3ccnc3)c2-c2ccc(OC)cc2)cc1 [Example 14, 2-(trans-4-stilbenyl)-1-[3-(imidazol-1-yl)-n-propyl]-4,5-di-(4-methoxyphenyl)-imidazole] |  | 0.4 | 1
15 | COC(=O)/C=C/c1ccc(-c2nc(-c3ccc(N(C)C)cc3)c(-c3ccc(N(C)C)cc3)n2CCCCCC(=O)OC)cc1 [Example 15, 4,5-di-[4-(dimethylamino)-phenyl]-2-{4-[trans-(2-methoxycarbonyl)-ethenyl]-phenyl}-1-[5-(methoxycarbonyl)-n-pentyl-]-imidazole] |  | 0.6 | 5
16 | CCCCCCn1c(-c2ccc(OCCCN(C)C)cc2)nc(-c2ccc(OC)cc2)c1-c1ccc(OC)cc1 [Example 16, 4,5-di-(4-methoxyphenyl)-2-{4-[3-(dimethylamino)-propyloxy]-phenyl}-1-(n-hexyl)-imidazole] |  | 2 | 10
